Measured values from US8993595B2, “Macrocyclic serine protease inhibitors” (priority 2009, dated 2015).

How the values were obtained:
[1] = tested on: HCV Con1 subgenomic replicon in Huh-7 cells (GS4.1 cells); experiment: HCV Replicon Assay (NS4A ELISA); format: cell-based; conditions: Hepatitis C virus, 72 hr
Protocol: Huh-7 cells containing HCV Con1 subgenomic replicon (GS4.1 cells) were grown in Dulbecco's Modified Eagle Medium (DMEM) supplemented with 10% fetal bovine serum (FBS), 2 mM L-glutamine, 110 mg/L sodium pyruvate, 1× non-essential amino acids, 100 U/mL penicillin-streptomycin, and 0.5 mg/mL G418 (Invitrogen). For dose-response testing, the cells were seeded in 96-well plates at 7.5×10^3 cells/well in a volume of 50 μL, and incubated at 37° C./5% CO2. Three hours after plating, 50 μL of ten 2-fold serial dilutions of compounds (highest concentration, 75 μM) were added, and cell cultures were incubated at 37° C./5% CO2 in the presence of 0.5% DMSO. Alternatively, compounds were tested at a single concentration of 15 μM. In all cases, Huh-7 cells lacking the HCV replicon served as negative control. The cells were incubated in the presence of compounds for 72 hr after which they were monitored for expression of the NS4A protein by enzyme-linked immunosorbent assay (ELISA). For this, the plates were then fixed for 1 min with acetone/methanol (1:1, v/v), washed twice with phosphate-buffered saline (PBS), 0.1% Tween 20, blocked for 1 hr at room temperature with TNE buffer containing 10% FBS and then incubated for 2 hr at 37° C. with the anti-NS4A mouse monoclonal antibody A-236 (ViroGen) diluted in the same buffer. After washing three times with PBS, 0.1% Tween 20, the cells were incubated 1 hr at 37° C. with anti-mouse immunoglobulin G-peroxidase conjugate in TNE, 10% FBS. After washing as described above, the reaction was developed with O-phenylenediamine (Zymed). The reaction was stopped after 30 min with 2 N H2SO4, and absorbance was read at 492 nm using Sunrise Tecan spectrophotometer. EC50 values were determined from the % inhibition versus concentration data using a sigmoidal non-linear regression analysis based on four parameters with Tecan Magellan software.

in vitro = format: cell-based; conditions: human; GS4.1 cells, Cell Titer 96 AQueous One Solution
Protocol: For cytotoxicity evaluation, GS4.1 cells were treated with compounds as described above and cellular viability was monitored using the Cell Titer 96 AQueous One Solution Cell Proliferation Assay (Promega). CC50 values were determined from the % cytotoxicity versus concentration data with Tecan Magellan software as described above.

HCV NS3-NS4A protease = target: T1, HCV NS3-NS4A protease (Hepatitis C virus genotype 1a, UniProt P27958); experiment: HCV Protease Assay (SensoLyte 620 HCV Protease Assay kit); format: biochemical; conditions: 1.2 nM HCV NS3-NS4A protease, 60 min, room temperature
T1 construct: HCV NS3-NS4A protease, which was obtained according to Taremi et al; made in house
T1 sequence (P27958 1027-1208): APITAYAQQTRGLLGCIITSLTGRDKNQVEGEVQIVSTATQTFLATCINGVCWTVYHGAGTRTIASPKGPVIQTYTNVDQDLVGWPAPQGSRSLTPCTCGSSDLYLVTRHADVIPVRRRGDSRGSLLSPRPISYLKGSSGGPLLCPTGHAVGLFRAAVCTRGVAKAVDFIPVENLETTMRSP
Protocol: Measurement of the inhibitory effect of compounds on HCV protease activity was performed with the SensoLyte™ 620 HCV Protease Assay kit from AnaSpec, Inc. (San Jose, Calif.) under conditions described by the supplier using 1.2 nM HCV NS3-NS4A protease, which was obtained according to Taremi et al. (Protein Science, 1998, 7, 2143-2149). The compounds were tested at a variety of concentrations in assay buffer containing a final DMSO concentration of 5%. Reactions were allowed to proceed for 60 min at room temperature and fluorescence measurements were recorded with a Tecan Infinity Spectrofluorimeter. The IC50 values were determined from the percent inhibition versus concentration data using a sigmoidal non-linear regression analysis based on four parameters with Tecan Magellan software.

SMILES | EC50 [1] | CC50 (in vitro) | IC50 (HCV NS3-NS4A protease)
COc1ccc2c(O[C@H]3CCN4C(=O)N(C)CCOC/C=C\[C@@H]5C[C@@]5(C(=O)NS(=O)(=O)C5(C)CC5)NC(=O)[C@@H]4C3)cc(-c3nc(C(F)(F)F)cs3)nc2c1C [Compound 54] | 1000 to 10000 nM | > 75000 nM | < 1000 nM
COc1ccc2c(O[C@H]3CCN4C(=O)N(C)CCCC/C=C\[C@@H]5C[C@@]5(C(=O)NS(=O)(=O)C5CC5)NC(=O)[C@@H]4C3)cc(-c3nc(C(F)(F)F)cs3)nc2c1C [Compound 51, 1-cyclopropanesulfonic acid{(Z)-(1S,4R,6S,18S)-18-[7-methoxy-8-methyl-2-(4-trifluoromethyl-thiazol-2-yl)-quinolin-4-yloxy]-13-methyl-2,14-dioxo-3,13,15-triaza-tricyclo[13.4.0.0*4,6*]nonadec-7-ene-4-carbonyl}amide] | < 1000 nM | 10000 to 75000 nM | < 1000 nM
COc1ccc2c(O[C@H]3CCN4C(=O)N(C)CCCC/C=C\[C@@H]5C[C@@]5(C(=O)NS(=O)(=O)C5(C)CC5)NC(=O)[C@@H]4C3)nc(-c3ccc(F)cc3)nc2c1C [Compound 56] | < 1000 nM | > 75000 nM | < 1000 nM
C#Cc1csc(-c2cc(O[C@H]3CCN4C(=O)N(C)CCCC/C=C\[C@@H]5C[C@@]5(C(=O)NS(=O)(=O)C5(C)CC5)NC(=O)[C@@H]4C3)c3ccc(OC)c(C)c3n2)n1 [Compound 55, 1-methyl-cycloprpoanesulfonic acid{(Z)-(1S,4R,6S,18S)-18-[2-(4-ethynyl-thiazol-2-yl)-7-methoxy-8-methyl-quinolin-4-yl-oxy]-13-methyl-2,14-dioxo-3,13,15-triaza-tricyclo[13.4.0.0*4,6*]nonadec-7-ene-4-carbonyl}-amide] | < 1000 nM | 10000 to 75000 nM | < 1000 nM
COc1ccc2c(O[C@H]3CCN4C(=O)CCCCC/C=C\[C@@H]5C[C@@]5(C(=O)NS(=O)(=O)C5CC5)NC(=O)[C@@H]4C3)cc(-c3nc(C(F)(F)F)cs3)nc2c1C [Compound 58] | < 1000 nM | 10000 to 75000 nM | < 1000 nM
COc1ccc2c(O[C@H]3CCN4C(=O)N(C)CCCC/C=C\[C@@H]5C[C@@]5(C(=O)NS(=O)(=O)C5(C)CC5)NC(=O)[C@@H]4C3)nc(-c3nc(C(F)(F)F)cs3)nc2c1C [Compound 57, 1-methyl-cyclopropanesulfonic acid {(Z)-(1S,4R,6S,18S)-18-[7-methoxy-8-methyl-2-(4-trifluoromethyl-thiazol-2-yl)quinazolin-4-yloxy]-13-methyl-2,14-dioxo-3,13,15-triaza-tricyclo[13.4.0.0*4,6*]nonadec-7-ene-4-carbonyl}-amide] | < 1000 nM | 10000 to 75000 nM | < 1000 nM
